Data as given in patent publication US20100331348A1, “TROPANE DERIVATIVES USEFUL AS PESTICIDES” (SYNGENTA CROP PROTECTION, INC., priority 2007, published 2010).
Like-named read-outs stand apart in the source and are kept apart here.

Columns and labels:
Heliothis virescens = Heliothis virescens (Tobacco budworm) egg test on artificial diet; settings: 96 h, read-out: control of Heliothis virescens
[1] = system: Puccinia recondita f.sp. tritici; experiment: Puccinia recondita f.sp. tritici (wheat brown rust) leaf disk assay; format: in vivo; settings: foliar, 216 h, preventive, nine days after inoculation, read-out: control of fungal infection, Puccinia recondita f.sp. tritici
[2] = system: Erysiphe graminis f.sp. tritici; experiment: Erysiphe graminis f.sp. tritici (wheat powdery mildew) leaf disk assay; format: in vivo; settings: Blumeria graminis, foliar, 96 h, preventive, four days after inoculation, read-out: control of fungal infection, Erysiphe graminis fsp. tritici
Pyricularia oryzae = experiment: whole plant or invertebrate; format: in vivo; settings: foliar, 96 h
Plasmopara viticola = Plasmopara viticola (downy mildew of grapevine) leaf disk assay; format: in vivo; settings: foliar, 168 h, preventive, seven days after inoculation, read-out: control of fungal infection, Plasmopara viticola
Phytophthora infestans = experiment: whole plant or invertebrate; format: in vivo; settings: foliar, 96 h, read-out: control of fungal infection, Phytophthora infestans
Plutella xylostella = Plutella xylostella (Diamond back moth) artificial diet test; settings: 120 h, read-out: control of Plutella xylostella
Aedes aegypti = Aedes aegypti (Yellow fever mosquito) larvae test; format: in vivo; settings: 48 h
Tetranychus urticae = settings: foliar, 192 h, read-out: control of Tetranychus urticae
Pythium ultimum = Pythium ultimum (Damping off) growth inhibition in potato dextrose broth; format: cell-based; settings: Globisporangium ultimum, 48 hours, read-out: control of fungal infection, Pythium ultimum
[3] = read-out: control of fungal infection, Pyricularia oryzae (at least 60% list)
[4] = read-out: control of fungal infection, Pyricularia oryzae (at least 80% list)

SMILES | pest or weed control at 200 ppm (Heliothis virescens) | pest or weed control at 200 ppm [1] | pest or weed control at 200 ppm [2] | pest or weed control at 200 ppm (Pyricularia oryzae; [3]) | pest or weed control at 200 ppm (Pyricularia oryzae; [4]) | pest or weed control at 200 ppm (Plasmopara viticola) | pest or weed control at 200 ppm (Phytophthora infestans) | pest or weed control at 200 ppm (Plutella xylostella) | pest or weed control at 2 ppm (Aedes aegypti) | pest or weed control at 200 ppm (Tetranychus urticae) | inhibition of growth at 200 ppm (Pythium ultimum)
Fc1cc(Cl)cnc1OC1C[C@H]2CC[C@@H](C1)N2c1ncnc2sccc12 (stereo partly shown) [Example 1.72] | ≥ 80% | ≥ 80% | ≥ 80% | ≥ 60% | ≥ 80% | – | – | – | – | – | –
CCC(=O)c1cc(F)c(OC2C[C@H]3CC[C@@H](C2)N3c2ncnc3sccc23)c(F)c1 (stereo partly shown) [Example 2.66] | – | – | ≥ 80% | – | – | ≥ 80% | ≥ 80% | ≥ 80% | ≥ 80% | ≥ 80% | –
Cc1csc2ncnc(N3[C@@H]4CC[C@H]3CC(Oc3ccc(C(F)(F)F)cn3)C4)c12 (stereo partly shown) [Example 2.71] | – | – | ≥ 80% | ≥ 60% | – | ≥ 80% | – | – | ≥ 80% | ≥ 80% | –
FC(F)(F)c1ccc(OC2C[C@H]3CC[C@@H](C2)N3c2ncnc3ccsc23)nc1 (stereo partly shown) [Example 2.77] | – | ≥ 80% | ≥ 80% | ≥ 60% | – | – | – | – | – | – | ≥ 60%
FC(F)(F)c1ccc(OC2C[C@H]3CC[C@@H](C2)N3c2ncnc3ccccc23)nc1 (stereo partly shown) [Example 2.85] | ≥ 80% | – | ≥ 80% | ≥ 60% | – | – | – | – | ≥ 80% | ≥ 80% | –
CCc1ncnc(N2[C@@H]3CC[C@H]2CC(Oc2ccc(C)nc2)C3)c1Cl (stereo partly shown) [Example 2.151] | – | – | ≥ 80% | – | – | – | – | – | ≥ 80% | – | ≥ 60%
CCC(=O)c1ccc(OC2C[C@H]3CC[C@@H](C2)N3c2ncnc(CC)c2Cl)cc1 (stereo partly shown) [Example 2.166] | ≥ 80% | ≥ 80% | – | – | – | – | ≥ 80% | – | ≥ 80% | ≥ 80% | –
COCc1ncnc(N2[C@@H]3CC[C@H]2CC(Oc2ccc(C(F)(F)F)cn2)C3)c1OC (stereo partly shown) [Example 2.167] | ≥ 80% | – | ≥ 80% | – | – | – | – | – | – | – | –
Cn1nc(C(F)(F)F)cc1C(=O)N1[C@@H]2CC[C@H]1CC(Oc1ccc(C(F)(F)F)cn1)C2 (stereo partly shown) [Example 2.222] | ≥ 80% | – | ≥ 80% | – | – | – | – | – | – | – | –
CCc1ncnc(N2C3CCC2CC(=CCOc2cccc(F)c2)C3)c1Cl [Example 3.12] | ≥ 80% | ≥ 80% | – | – | ≥ 80% | – | – | ≥ 80% | ≥ 80% | – | –
CCc1ncnc(N2C3CCC2CC(=CCOc2ccc(Cl)c(OC)c2)C3)c1Cl [Example 3.13] | ≥ 80% | ≥ 80% | – | – | ≥ 80% | – | – | – | ≥ 80% | – | –
Cc1ccc(OCC=C2CC3CCC(C2)N3c2ncnc3sccc23)cc1 [Example 3.30] | ≥ 80% | ≥ 80% | – | – | ≥ 80% | ≥ 80% | ≥ 80% | – | ≥ 80% | – | –
C#CCN(CC#C)C1C[C@H]2CC[C@@H](C1)N2c1ncnc(CC)c1Cl (stereo partly shown) [Example 4.19] | ≥ 80% | ≥ 80% | – | – | – | – | – | – | – | – | –
CCc1ncnc(N2C3CCC2CC(=NOCC2CC2)C3)c1Cl [Example 5.3] | – | ≥ 80% | ≥ 80% | – | – | – | – | – | ≥ 80% | – | ≥ 60%
CCc1ncnc(N2C3CCC2CC(=NOCc2ccccc2)C3)c1Cl [Example 5.5] | ≥ 80% | ≥ 80% | ≥ 80% | – | – | – | ≥ 80% | ≥ 80% | ≥ 80% | – | –
CCc1ncnc(N2C3CCC2CC(=NOCc2ccc(C#N)cc2)C3)c1Cl [Example 5.14] | ≥ 80% | ≥ 80% | ≥ 80% | – | ≥ 80% | – | – | ≥ 80% | – | – | –

SMILES | pest or weed control at 200 ppm (Heliothis virescens) | pest or weed control at 200 ppm [1] | pest or weed control at 200 ppm [2] | pest or weed control at 200 ppm (Pyricularia oryzae; [3]) | pest or weed control at 200 ppm (Pyricularia oryzae; [4]) | pest or weed control at 200 ppm (Plasmopara viticola) | pest or weed control at 200 ppm (Phytophthora infestans) | pest or weed control at 200 ppm (Plutella xylostella) | pest or weed control at 2 ppm (Aedes aegypti) | pest or weed control at 200 ppm (Tetranychus urticae) | inhibition of growth at 200 ppm (Pythium ultimum)
CCc1ncnc(N2C3CCC2CC(=NOCc2ccc(OC)cc2)C3)c1Cl [Example 5.16] | ≥ 80% | ≥ 80% | ≥ 80% | – | – | ≥ 80% | – | ≥ 80% | ≥ 80% | ≥ 80% | –
CCc1ncnc(N2C3CCC2CC(=NOCc2cc(F)ccc2F)C3)c1Cl [Example 5.73] | ≥ 80% | ≥ 80% | ≥ 80% | ≥ 60% | – | – | – | ≥ 80% | ≥ 80% | – | –
CCc1ncnc(N2C3CCC2CC(=NOCc2ccc(Br)cc2F)C3)c1Cl [Example 5.85] | ≥ 80% | – | – | – | – | – | – | ≥ 80% | – | ≥ 80% | –
CCc1ncnc(N2C3CCC2CC(=NOCc2cc(F)c(F)cc2F)C3)c1Cl [Example 5.87] | ≥ 80% | ≥ 80% | ≥ 80% | – | – | – | – | ≥ 80% | ≥ 80% | – | –
CCc1ncnc(N2C3CCC2CC(=NOCc2noc(C)n2)C3)c1Cl [Example 5.92] | ≥ 80% | ≥ 80% | ≥ 80% | – | – | – | – | ≥ 80% | ≥ 80% | ≥ 80% | –
Cc1ccc(CON=C2CC3CCC(C2)N3c2ncnc3sccc23)cc1 [Example 5.145] | ≥ 80% | ≥ 80% | ≥ 80% | ≥ 60% | – | ≥ 80% | ≥ 80% | ≥ 80% | ≥ 80% | ≥ 80% | –
CCc1ccc(CON=C2CC3CCC(C2)N3c2ncnc3sccc23)cc1 [Example 5.151] | – | ≥ 80% | ≥ 80% | – | ≥ 80% | ≥ 80% | ≥ 80% | – | ≥ 80% | ≥ 80% | –
FC(F)(F)c1ccc(CON=C2CC3CCC(C2)N3c2ncnc3sccc23)cc1 [Example 5.160] | – | ≥ 80% | ≥ 80% | – | ≥ 80% | ≥ 80% | ≥ 80% | ≥ 80% | ≥ 80% | ≥ 80% | –
N#Cc1ccc(CON=C2CC3CCC(C2)N3c2ncnc3sccc23)cc1 [Example 5.163] | ≥ 80% | ≥ 80% | ≥ 80% | – | ≥ 80% | – | ≥ 80% | ≥ 80% | ≥ 80% | – | –
Fc1ccc(F)c(CON=C2CC3CCC(C2)N3c2ncnc3sccc23)c1F [Example 5.228] | – | ≥ 80% | ≥ 80% | ≥ 60% | – | ≥ 80% | ≥ 80% | ≥ 80% | ≥ 80% | ≥ 80% | –
CCCCC1COC2(CC3CCC(C2)N3c2ncnc3sccc23)O1 (stereo not shown) [Example 6.3] | ≥ 80% | – | ≥ 80% | – | – | ≥ 80% | ≥ 80% | ≥ 80% | ≥ 80% | – | –
CCCC1COC2(CC3CCC(C2)N3c2ncnc3sccc23)O1 (stereo not shown) [Example 6.10] | – | ≥ 80% | ≥ 80% | – | ≥ 80% | ≥ 80% | – | ≥ 80% | ≥ 80% | ≥ 80% | –
Cc1ccc(CC2CC3CCC(C2)N3c2ncnc3sccc23)cc1 (stereo not shown) [Example 7.8] | ≥ 80% | ≥ 80% | – | ≥ 60% | ≥ 80% | ≥ 80% | – | ≥ 80% | ≥ 80% | – | –
COc1ccc(CC2CC3CCC(C2)N3c2ncnc3sccc23)cc1 (stereo not shown) [Example 7.11] | ≥ 80% | ≥ 80% | – | ≥ 60% | – | ≥ 80% | – | – | ≥ 80% | ≥ 80% | –
CCc1ncnc(N2C3CCC2CC(Cc2ccc(C)cc2)C3)c1Cl (stereo not shown) [Example 7.26] | ≥ 80% | – | – | – | – | – | – | ≥ 80% | ≥ 80% | – | –
CCc1ncnc(N2C3CCC2CC(Cc2ccc(OC)cc2)C3)c1Cl (stereo not shown) [Example 7.32] | ≥ 80% | ≥ 80% | – | – | – | – | – | ≥ 80% | ≥ 80% | ≥ 80% | –
